Data set [1] deals with human soluble guanylate cyclase alpha 1 and beta 1 subunits (sGC) (Homo sapiens (Human), UniProt Q02108+Q02153). Kind of data set: sGC cellular activator assay (cGMP, HTRF), in the presence and absence of 50% human serum. Type of data set: cell-based. The following applies: CHO cells stably expressing human sGC alpha 1/beta 1, preincubated with 40 microM ODQ; cGMP by HTRF; Table 2 does not state whether with or without 50% human serum. In short, it runs like this: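 First, CHO-sGC (human α1β1) cells get 1 h ODQ at 40 microM with IBMX and 0.1% BSA. Finally, cGMP is quantified by HTRF and EC50 computed.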
Background: Time-resolved FRET reads energy transfer from a long-lived donor to a nearby acceptor.

A short description of data set [2]: Human liver microsome (HLM) metabolic stability assay. The following applies: human liver microsomes. The format is in vitro ADME. In short, it runs like this:
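Remaining parent measured by LC/MS/MS (ESI, MRM) at 5, 15, 30 and 60 min relative to 0 min. Incubation: 1 uM compound, HLMs, NADPH-started, 37° C., 60 min total, single replicate. Slope of ln(% remaining) gives t1/2 = 0.693/slope, then CLint, CLh and % Qh.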
Background: Liver microsomes are a subcellular fraction often used to study metabolism.

The next data set in a line: physchem. The following applies: kinetic from dmso stock.
Where [3] appears, read: pH 2.2, aqueous buffer, Solubility (pH 2.2).
Where [4] appears, read: pH 4.5, aqueous buffer, Solubility (pH 4.5).
The mark [5] stands for this setting: pH 6.8, aqueous buffer, Solubility (pH 6.8).

Converted amounts (≈) assume the structure as drawn. Some results are limits rather than exact numbers.

In general, EC50 refers to the midpoint of the concentration-response curve. Low readings indicate a more potent agent, high ones a less potent agent. The term solubility denotes the concentration that dissolves in the medium under given conditions. Low readings indicate little dissolved substance, high ones much dissolved substance.

Chain of human soluble guanylate cyclase alpha 1 and beta 1 subunits (sGC) (Q02108 whole entry partner): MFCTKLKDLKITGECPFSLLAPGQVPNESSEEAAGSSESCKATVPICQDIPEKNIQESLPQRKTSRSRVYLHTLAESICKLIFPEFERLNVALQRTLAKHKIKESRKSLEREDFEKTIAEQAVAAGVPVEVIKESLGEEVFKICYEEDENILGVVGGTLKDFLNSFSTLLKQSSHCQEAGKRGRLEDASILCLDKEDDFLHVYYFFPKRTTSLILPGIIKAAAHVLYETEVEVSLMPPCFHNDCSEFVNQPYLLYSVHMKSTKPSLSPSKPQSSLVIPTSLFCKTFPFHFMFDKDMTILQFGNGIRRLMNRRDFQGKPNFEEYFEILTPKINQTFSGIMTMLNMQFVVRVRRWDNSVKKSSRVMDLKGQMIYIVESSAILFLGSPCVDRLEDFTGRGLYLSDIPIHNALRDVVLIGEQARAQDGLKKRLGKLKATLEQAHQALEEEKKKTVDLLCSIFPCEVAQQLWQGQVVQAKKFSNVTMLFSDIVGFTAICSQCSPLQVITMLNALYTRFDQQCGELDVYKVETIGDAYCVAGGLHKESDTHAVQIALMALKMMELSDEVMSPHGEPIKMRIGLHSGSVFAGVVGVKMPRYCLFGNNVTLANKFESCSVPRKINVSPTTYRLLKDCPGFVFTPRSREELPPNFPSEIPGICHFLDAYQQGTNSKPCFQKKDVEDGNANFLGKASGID
Chain of human soluble guanylate cyclase alpha 1 and beta 1 subunits (sGC) (Q02153 whole entry): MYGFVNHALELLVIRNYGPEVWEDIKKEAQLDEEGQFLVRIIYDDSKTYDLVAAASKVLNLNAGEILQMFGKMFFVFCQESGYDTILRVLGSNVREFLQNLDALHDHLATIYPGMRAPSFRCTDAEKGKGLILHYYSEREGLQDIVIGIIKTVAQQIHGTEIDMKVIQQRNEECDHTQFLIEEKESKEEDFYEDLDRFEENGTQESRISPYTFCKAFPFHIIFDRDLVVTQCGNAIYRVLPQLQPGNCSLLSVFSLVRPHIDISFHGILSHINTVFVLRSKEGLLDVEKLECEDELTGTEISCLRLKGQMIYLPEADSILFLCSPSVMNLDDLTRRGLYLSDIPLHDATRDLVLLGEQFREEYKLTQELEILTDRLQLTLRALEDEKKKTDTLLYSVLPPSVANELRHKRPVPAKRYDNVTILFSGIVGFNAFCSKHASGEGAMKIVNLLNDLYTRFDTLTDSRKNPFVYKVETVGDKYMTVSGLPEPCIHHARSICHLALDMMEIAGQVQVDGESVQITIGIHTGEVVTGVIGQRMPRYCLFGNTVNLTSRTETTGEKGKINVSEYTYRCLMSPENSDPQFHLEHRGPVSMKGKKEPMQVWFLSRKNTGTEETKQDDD

`CO[C@@H]1CN(c2cccc(-c3cccc(C)c3OCc3ccc4c(c3C)CCN(C)CC4)n2)CC[C@@H]1C(=O)O` [Compound 300] came in with an EC50 in data set [1] of 154 nM. Further, the “Metabolic stability (Qh %), % hepatic blood flow” value (“Metabolic stability (Qh %)” below) in data set [2] was under 24%. Moreover, the solubility at 24 h in “physchem” (setting [3]) was 116 µg/mL (≈ 220 µM); in “physchem” (setting [4]), 82.3 µg/mL (≈ 155 µM); in “physchem” (setting [5]), 62.3 µg/mL (≈ 118 µM).

`CO[C@@H]1CN(c2cccc(-c3cccc(C)c3OCc3ccc4c(c3C)CCN([C@H]3CCOC3)CC4)n2)CC[C@@H]1C(=O)O` [Compound 301]: the response in data set [1] was half-maximal at 1 nM (EC50). In data set [2], the “Metabolic stability (Qh %)” value is given as under 24%. Also, the figures for the solubility at 24 h in the data set “physchem” (setting [3]), in the data set “physchem” (setting [4]) and in “physchem” (setting [5]) were 141 µg/mL (≈ 241 µM), 105 µg/mL (≈ 180 µM) and 91.1 µg/mL (≈ 156 µM), respectively.

Regarding `CO[C@@H]1CN(c2cccc(-c3cccc(C)c3OCc3ccc4c(c3C)CCN([C@@H]3CCOC3)CC4)n2)CC[C@@H]1C(=O)O` [Compound 302], the response in data set [1] was half-maximal at 3 nM (EC50). In addition, in data set [2], the “Metabolic stability (Qh %)” value is given as under 24%. Besides, the solubility at 24 h in the data set “physchem” (setting [3]) worked out at 148 µg/mL (≈ 252 µM); in “physchem” (setting [4]), 112 µg/mL (≈ 190 µM); in “physchem” (setting [5]), 85.5 µg/mL (≈ 146 µM).

`Cc1cc(COc2c(C)cccc2-c2csc(N3CC[C@@]4(C(=O)O)C[C@H]4C3)n2)cc2c1CN(C1CCC(F)(F)CC1)CC2` [Compound 303]: in data set [1], it took 2 nM to reach a half-maximal effect (EC50). Besides, the “Metabolic stability (Qh %)” value in data set [2] is recorded as 79%. Besides, the solubility at 24 h in the data set “physchem” (setting [3]) is 141 µg/mL (≈ 232 µM); in the data set “physchem” (setting [4]), 16.4 µg/mL (≈ 27 µM); in the data set “physchem” (setting [5]) it was 1 µg/mL (≈ 1.65 µM).

For the compound `Cc1c(COc2ccccc2-c2cccc(N3CC[C@@]4(C(=O)O)C[C@H]4C3)n2)ccc2c1CCNC2` [Compound 305], in data set [1], the EC50 was 340 nM. In addition, the “Metabolic stability (Qh %)” value in data set [2] is reported as 30%. Besides, the results for the solubility at 24 h in the data set “physchem” (setting [3]), in “physchem” (setting [4]) and in the data set “physchem” (setting [5]) were 108 µg/mL (≈ 231 µM), 81.2 µg/mL (≈ 173 µM) and 0.7 µg/mL (≈ 1.49 µM), respectively.

Turning to `Cc1c(COc2ccccc2-c2cccc(N3CC[C@@]4(C(=O)O)C[C@H]4C3)n2)ccc2c1CCN(C(C)c1ccccn1)C2` (stereo partly drawn) [Compound 306], the half-maximal effective concentration (EC50) in data set [1] came to 3 nM. In addition, the “Metabolic stability (Qh %)” value in data set [2] amounted to 61%. In addition, the solubility at 24 h in “physchem” (setting [3]) was 141 µg/mL (≈ 246 µM); in “physchem” (setting [4]) it was 97.1 µg/mL (≈ 169 µM); in the data set “physchem” (setting [5]), 5.2 µg/mL (≈ 9.05 µM).

Regarding `CO[C@@H]1CN(c2cccc(-c3cccc(C)c3OCc3ccc4c(c3C)CN(C3CCOCC3)C4)n2)CC[C@@H]1C(=O)O` [Compound 307], in data set [1], the concentration giving a half-maximal response (EC50) came out at 19 nM. Besides, the “Metabolic stability (Qh %)” value in data set [2] is given as under 24%. Besides, the solubility at 24 h came out at 127 µg/mL (≈ 223 µM) in the data set “physchem” (setting [3]), 101 µg/mL (≈ 176 µM) in the data set “physchem” (setting [4]) and 81.2 µg/mL (≈ 142 µM) in the data set “physchem” (setting [5]).

`Cc1c(COc2ccccc2-c2cccc(N3CC[C@@]4(C(=O)O)C[C@H]4C3)n2)ccc2c1CCN(Cc1cncn1C)C2` [Compound 308] had a 50% effective concentration (EC50) in data set [1] of 10 nM. Besides, the “Metabolic stability (Qh %)” value in data set [2] is given as 43%. Besides, the solubility at 24 h in the data set “physchem” (setting [3]) is 135 µg/mL (≈ 239 µM); in the data set “physchem” (setting [4]) it was 97.5 µg/mL (≈ 173 µM); in “physchem” (setting [5]), 0.1 µg/mL (≈ 0.177 µM).

As to `Cc1nccnc1C(C)N1CCc2c(ccc(COc3ccccc3-c3cccc(N4CC[C@@]5(C(=O)O)C[C@H]5C4)n3)c2C)C1` (stereo partly drawn) [Compound 309], in data set [1], the EC50 was determined as 18 nM. Also, in data set [2], the “Metabolic stability (Qh %)” value was determined as 54%. Further, the solubility at 24 h amounted to 163 µg/mL (≈ 276 µM) in “physchem” (setting [3]), 116 µg/mL (≈ 197 µM) in “physchem” (setting [4]) and 23.8 µg/mL (≈ 40.4 µM) in “physchem” (setting [5]).

Take `Cc1cc(CN2CCc3c(ccc(COc4ccccc4-c4cccc(N5CC[C@@]6(C(=O)O)C[C@H]6C5)n4)c3C)C2)no1` [Compound 311]: a half-maximal response in data set [1] (EC50) required 3 nM. The “Metabolic stability (Qh %)” value in data set [2] came to 63%. Further, the solubility at 24 h in “physchem” (setting [3]) amounted to 99.5 µg/mL (≈ 176 µM); in the data set “physchem” (setting [4]) it was 61.6 µg/mL (≈ 109 µM); in the data set “physchem” (setting [5]), 0.5 µg/mL (≈ 0.885 µM).

In turn, `CO[C@H]1CN(c2nc(-c3cccc(C)c3OCc3ccc4c(c3)[C@@H](C)CN(C3CCOCC3)CC4)cs2)CC[C@H]1C(=O)O` [Compound 312] came in with an EC50 in data set [1] of 3 nM. Besides, the “Metabolic stability (Qh %)” value in data set [2] is listed as under 24%. Also, the figures for the solubility at 24 h in the data set “physchem” (setting [3]), in “physchem” (setting [4]) and in “physchem” (setting [5]) were 155 µg/mL (≈ 256 µM), 143 µg/mL (≈ 236 µM) and 146 µg/mL (≈ 242 µM), respectively.

As for `CO[C@H]1CN(c2nc(-c3cccc(C)c3OCc3ccc4c(c3)[C@H](C)CN(C3CCOCC3)CC4)cs2)CC[C@H]1C(=O)O` [Compound 313], in data set [1], the response was half-maximal at 7 nM (EC50). The “Metabolic stability (Qh %)” value in data set [2] is under 24%. The figures for the solubility at 24 h in the data set “physchem” (setting [3]), in the data set “physchem” (setting [4]) and in the data set “physchem” (setting [5]) were 141 µg/mL (≈ 233 µM), 136 µg/mL (≈ 225 µM) and 133 µg/mL (≈ 219 µM), respectively.

For the origin of these results see patent publication US9353090B2, “Heterocyclic carboxylic acids as activators of soluble guanylate cyclase” (Boehringer Ingelheim International GmbH, priority 2014, dated 2016).
